One may read the IC50 as the concentration needed to halve the response being measured. As a reminder, the solubility (thermodynamic) is solubility found after equilibrating the solid with the medium.

Here are results for 27 molecules from ChEMBL document CHEMBL6071160, “Identification of a novel 10-hydroxyevodiamine prodrug as a potent topoisomerase inhibitor with improved aqueous solubility for treatment of hepatocellular carcinoma” (Eur J Med Chem, 2024).

The structures appear in SMILES notation. ≈ marks a conversion by molar mass, not a printed value.

The subject of one series is HepG2. Briefly: Antiproliferative activity against human HepG2 cells assessed as inhibition of cell proliferation incubated for 72 hrs by MTT assay. It is filed as functional, cell-based. The note with it: HepG2, 72 h. A general note: Formazan colour is commonly taken as a measure of viable cells.
Another series concerns Huh-7. Briefly: Antiproliferative activity against human Huh-7 cells assessed as inhibition of cell proliferation incubated for 72 hrs by MTT assay. It is filed as functional, cell-based. The note with it: Huh-7, 72 h.
The next series deals with SK-HEP1. Briefly: Antiproliferative activity against human SK-HEP1 cells assessed as inhibition of cell proliferation incubated for 72 hrs by MTT assay. Particulars: SK-HEP1, 72 h. It is filed as functional, cell-based.
Series [1] in a line: Aqueous solubility of the compound […] measured after 72 hrs in shaking by HPLC analysis. It is filed as physicochemical.
Series [2] is described as follows: Antiproliferative activity against human Doxorubicin-resistant SMMC-7721 cell assessed as inhibition of cell proliferation incubated for 72 hrs by MTT assay. The note with it: SMMC-7721, 72 h. In kind it is functional, cell-based.
The test system of another series is SMMC-7721. Briefly: Antiproliferative activity against human SMMC-7721 cells assessed as inhibition of cell proliferation incubated for 72 hrs by MTT assay. Particulars: SMMC-7721, 72 h. It is filed as functional, cell-based.

As to `CCN(CC)C(=O)Oc1ccc2[nH]c3c(c2c1)CCN1C(=O)c2cc(F)cc(F)c2N(c2cccc(F)c2)C31` (stereo not given), the IC50 with HepG2, in the series on Huh-7 and in the series with SK-HEP1 was more than 1620 nM in each case. Further, the solubility (thermodynamic) at 72 h in series [1] was determined as 5.5 µg/mL (≈ 10.3 µM).

Turning to `O=C1c2cc(F)cc(F)c2N(c2cccc(F)c2)C2c3[nH]c4ccc(OCCCN5CCOCC5)cc4c3CCN12` (stereo not given), the IC50 in the series with HepG2, in the series with Huh-7 and with SK-HEP1 was more than 1620 nM throughout. Further, the solubility (thermodynamic) at 72 h in series [1] is 11.6 µg/mL (≈ 20.6 µM).

In the case of `CN(C)CCOc1ccc2[nH]c3c(c2c1)CCN1C(=O)c2cc(F)cc(F)c2N(c2cccc(F)c2)C31` (stereo not given), the IC50 in the series with HepG2 was 800 nM; in the series on Huh-7, 430 nM; with SK-HEP1, 1380 nM. The thermodynamic solubility at 72 h in series [1] is 53 µg/mL (≈ 105 µM).

For the molecule `CN(C)C(=O)Oc1ccc2[nH]c3c(c2c1)CCN1C(=O)c2cc(F)cc(F)c2N(c2cccc(F)c2)C31` (stereo not given), the half-maximal inhibitory concentration (IC50) with HepG2, with Huh-7 and in the series with SK-HEP1 was more than 1620 nM each time. The solubility (thermodynamic) at 72 h in series [1] is 3.1 µg/mL (≈ 6.12 µM).

Consider `COCCCOc1ccc2[nH]c3c(c2c1)CCN1C(=O)c2cc(F)cc(F)c2N(c2cccc(F)c2)C31` (stereo not given), for which the IC50 with HepG2, with Huh-7 and with SK-HEP1 was more than 1620 nM in each case. The molecule also registered a solubility (thermodynamic) at 72 h in series [1] of 71.4 µg/mL (≈ 141 µM).

Consider `O=C(CO)Oc1ccc2[nH]c3c(c2c1)CCN1C(=O)c2cc(F)cc(F)c2N(c2cccc(F)c2)C31` (stereo not given), for which the IC50 in the series with HepG2 is 180 nM; in the series on Huh-7, 70 nM; with SK-HEP1 it was 40 nM. In series [1], this molecule displayed a solubility (thermodynamic) at 72 h of 0.7 µg/mL (≈ 1.42 µM).

Take `O=C(CCN1CCCC1)Oc1ccc2[nH]c3c(c2c1)CCN1C(=O)c2cc(F)cc(F)c2N(c2cccc(F)c2)C31` (stereo not given): the values for the IC50 in the series on HepG2, in the series on Huh-7 and in the series with SK-HEP1 were 80 nM, 40 nM and 30 nM, respectively. The molecule further had a thermodynamic solubility at 72 h in series [1] of 10.1 µg/mL (≈ 18 µM).

Consider `O=C(Oc1ccc2[nH]c3c(c2c1)CCN1C(=O)c2cc(F)cc(F)c2N(c2cccc(F)c2)C31)N1CCC(N2CCCCC2)CC1` (stereo not given), for which the half-inhibitory concentration (IC50) with HepG2, with Huh-7 and in the series on SK-HEP1 was more than 1620 nM throughout. The molecule also yielded a solubility (thermodynamic) at 72 h in series [1] of 34.5 µg/mL (≈ 54.8 µM).

For `CC(C)(O)COc1ccc2[nH]c3c(c2c1)CCN1C(=O)c2cc(F)cc(F)c2N(c2cccc(F)c2)C31` (stereo not given), the values for the IC50 in the series with HepG2, with Huh-7 and in the series with SK-HEP1 were 1240 nM, 530 nM and 920 nM, respectively. In addition, the solubility (thermodynamic) at 72 h in series [1] came to 2.5 µg/mL (≈ 4.93 µM).

Consider `O=C1c2cc(F)cc(F)c2N(c2cccc(F)c2)C2c3[nH]c4ccc(OCCCN5CCCC5)cc4c3CCN12` (stereo not given), for which the IC50 in the series with HepG2, in the series with Huh-7 and in the series on SK-HEP1 was more than 1620 nM in each case. In series [1], this molecule yielded a thermodynamic solubility at 72 h of 61.1 µg/mL (≈ 112 µM).

In the case of `COCCOc1ccc2[nH]c3c(c2c1)CCN1C(=O)c2cc(F)cc(F)c2N(c2cccc(F)c2)C31` (stereo not given), the IC50 in the series with HepG2 stood at 1280 nM; in the series with Huh-7, 1530 nM; in the series on SK-HEP1 it was 1580 nM. In series [1], this molecule registered a thermodynamic solubility at 72 h of 1.3 µg/mL (≈ 2.63 µM).

On to `O=C1c2cc(F)cc(F)c2N(c2cccc(F)c2)C2c3[nH]c4ccc(OCCO)cc4c3CCN12` (stereo not given), for which the IC50 turned out to be 280 nM with HepG2, 120 nM with Huh-7 and 200 nM with SK-HEP1. The molecule also had a thermodynamic solubility at 72 h in series [1] of 9.5 µg/mL (≈ 19.8 µM).

On to `COCC(=O)Oc1ccc2[nH]c3c(c2c1)CCN1C(=O)c2cc(F)cc(F)c2N(c2cccc(F)c2)C31` (stereo not given), for which the concentration for half-maximal inhibition (IC50) in the series on HepG2 is 90 nM; with Huh-7, 40 nM; in the series on SK-HEP1, 40 nM. This molecule yielded a solubility (thermodynamic) at 72 h in series [1] of 3 µg/mL (≈ 5.91 µM).

For `CNC(=O)c1cc(Oc2ccc(NC(=O)Nc3ccc(Cl)c(C(F)(F)F)c3)cc2)ccn1` [SORAFENIB], the values for the concentration for half-maximal inhibition (IC50) (in series [2]; in the series on SMMC-7721) were 5120 nM and 3460 nM, respectively.

Turning to `CC(O)COc1ccc2[nH]c3c(c2c1)CCN1C(=O)c2cc(F)cc(F)c2N(c2cccc(F)c2)C31` (stereo not given), the IC50 in the series with HepG2 was found to be 510 nM; in the series with Huh-7, 190 nM; in the series with SK-HEP1, 730 nM. Besides, the thermodynamic solubility at 72 h in series [1] worked out at 12.2 µg/mL (≈ 24.7 µM).

In the case of `O=C(O)COc1ccc2[nH]c3c(c2c1)CCN1C(=O)c2cc(F)cc(F)c2N(c2cccc(F)c2)C31` (stereo not given), the IC50 with HepG2, in the series on Huh-7 and in the series with SK-HEP1 was more than 1620 nM in each case. The molecule further returned a thermodynamic solubility at 72 h in series [1] of 72.5 µg/mL (≈ 147 µM).

Take `CN(C)CCC(=O)Oc1ccc2[nH]c3c(c2c1)CCN1C(=O)c2cc(F)cc(F)c2N(c2cccc(F)c2)C31` (stereo not given): the IC50 in the series on HepG2, with Huh-7 and with SK-HEP1 was 40 nM in each case. Also, the solubility (thermodynamic) at 72 h in series [1] came to 11.8 µg/mL (≈ 22.1 µM).

As to `O=C1c2cc(F)cc(F)c2N(c2cccc(F)c2)C2c3[nH]c4ccc(OCCN5CCCCC5)cc4c3CCN12` (stereo not given), the half-maximal inhibitory concentration (IC50) with HepG2, in the series on Huh-7 and with SK-HEP1 was more than 1620 nM in each case. Further, the thermodynamic solubility at 72 h in series [1] worked out at 34.3 µg/mL (≈ 62.8 µM).

On to `O=C(Oc1ccc2[nH]c3c(c2c1)CCN1C(=O)c2cc(F)cc(F)c2N(c2cccc(F)c2)C31)N1CCNCC1` (stereo not given), for which the half-inhibitory concentration (IC50) in the series on HepG2, in the series on Huh-7 and with SK-HEP1 was more than 1620 nM each time. Moreover, in series [1], the solubility (thermodynamic) at 72 h stood at 1.5 µg/mL (≈ 2.74 µM).

Consider `O=C1c2cc(F)cc(F)c2N(c2cccc(F)c2)C2c3[nH]c4ccc(OCCN5CCNCC5)cc4c3CCN12` (stereo not given), for which the IC50 with HepG2, with Huh-7 and in the series with SK-HEP1 was more than 1620 nM each time. For the same molecule, the solubility (thermodynamic) at 72 h in series [1] stood at 50.5 µg/mL (≈ 92.2 µM).

Take `O=C1c2cc(F)cc(F)c2N(c2cccc(F)c2)C2c3[nH]c4ccc(OCCN5CCOCC5)cc4c3CCN12` (stereo not given): the IC50 with HepG2, with Huh-7 and in the series on SK-HEP1 was more than 1620 nM each time. The solubility (thermodynamic) at 72 h in series [1] is 9.5 µg/mL (≈ 17.3 µM).

As for `O=C(O)CCC(=O)Oc1ccc2[nH]c3c(c2c1)CCN1C(=O)c2cc(F)cc(F)c2N(c2cccc(F)c2)C31` (stereo not given), the results for the IC50 with HepG2, with Huh-7 and in the series with SK-HEP1 were 70 nM, 20 nM and 90 nM, respectively. This molecule came in with a solubility (thermodynamic) at 72 h in series [1] of 6.1 µg/mL (≈ 11.4 µM).

Consider `O=C1c2cc(F)cc(F)c2N(c2cccc(F)c2)C2c3[nH]c4ccc(OCCCN5CCCCC5)cc4c3CCN12` (stereo not given), for which the IC50 with HepG2, in the series with Huh-7 and in the series on SK-HEP1 was more than 1620 nM in each case. Moreover, in series [1], the solubility (thermodynamic) at 72 h is 100 µg/mL (≈ 179 µM).

On to `CC[C@@]1(O)C(=O)OCc2c1cc1n(c2=O)Cc2cc3c(CN(C)C)c(O)ccc3nc2-1` [TOPOTECAN], for which the IC50 with HepG2 is 1040 nM; with Huh-7, 3750 nM; in the series with SK-HEP1 it was 1510 nM.

Turning to `CN1CCN(CCOc2ccc3[nH]c4c(c3c2)CCN2C(=O)c3cc(F)cc(F)c3N(c3cccc(F)c3)C42)CC1` (stereo not given), the IC50 in the series on HepG2, in the series on Huh-7 and with SK-HEP1 was more than 1620 nM in each case. The molecule further registered a solubility (thermodynamic) at 72 h in series [1] of 103 µg/mL (≈ 183 µM).

On to `CN(C)CC(=O)Oc1ccc2[nH]c3c(c2c1)CCN1C(=O)c2cc(F)cc(F)c2N(c2cccc(F)c2)C31` (stereo not given), for which the values for the 50% inhibitory concentration (IC50) in the series with HepG2, in the series with Huh-7 and with SK-HEP1 were 100 nM, 40 nM and 30 nM, respectively. Besides, the solubility (thermodynamic) at 72 h in series [1] stood at 8.7 µg/mL (≈ 16.7 µM).

In the case of `COP(=O)(OC)Oc1ccc2[nH]c3c(c2c1)CCN1C(=O)c2cc(F)cc(F)c2N(c2cccc(F)c2)C31` (stereo not given), the IC50 with HepG2, in the series with Huh-7 and in the series with SK-HEP1 was more than 1620 nM each time. Further, in series [1], the thermodynamic solubility at 72 h came to 1.9 µg/mL (≈ 3.5 µM).
